# Values quoted from earlier work in patent publication US6682761B2, “Water-insoluble drug particle process” (RTP Pharma, Inc., priority 2000, dated 2004).
# Conditions: in vivo
structure (smiles),measurement,value
CC(C)(Oc1ccc(C(=O)c2ccc(Cl)cc2)cc1)C(=O)O [Fenofibric acid],plasma half-life,about 20 hours
